# US5459077A, “Methods for modelling tertiary structures of biologically active ligands and for modelling agonists and antagonists thereto” (PepMetics, Inc., priority 1993, dated 1995)
# Bridge positions count the residues as written; N and C are the ends. Square brackets hold non-standard residues; d marks the D form. Peptide text beside a SMILES is read from it. Sar = CNCC(=O)O
# Tests used:
# rat isolated uterus = assay type: cell-based; conditions: for AGONIST ACTIVITY: relative to Angiotensin II = 100; for agonist / antagonist character in words: footnotes of Table I
# Protocol: ^b = Agonist Activity was measured via a rat isolated uterus bioassay
# as described by Matsoukas et al., J. Med. Chem., 31, pp. 1418-1421 (1988)
# Results are reported relative to Angiotensin II wherein Angiotensin II =
# Analogs of Angiotensin II were synthesized, purified and bioassayed by method described by Matsoukas et al., J. Med. Chem., 31, pp. 1418-1421 (1988). 1,2-propanediol [Pr(OH)2 ] was dried by refluxing over calcium oxide for 8 hours, collected by distillation and stored over a molecular sieve. Water content was estimated by ^1 H NMR or by the Karl Fisher method. Isopropanol (PrOH) was of HPLC grade (Caledon Laboratories Ltd) and was expected to contain less than 1% water. Dimethyl sulfoxide (DMSO) and trifluoroethanol (TFE) were used without further treatment. Aqueous solvents were prepared from distilled water which had been passed through Fisher ion-exchange cartridges. N-acetyl-tyrosine-amide (NAYA) was obtained from Sigma. Sodium dodecylsulfate (SDS) was obtained from BDH biochemicals (specially pure) and was used without further treatment.
# [Sar^1 ]Angiotensin II was synthesized by the solid phase technique and purified to homogeneity by reversed-phase HPLC using methods described by Matsoukas et al., J. Med. Chem. 31(7), pp. 1418-1421 (1988). The synthetic peptide gave the required amino acid analysis and appeared as a single product in two thin layer chromatography (TLC) systems. [Sar^1 ]Angiotensin II had 180% of the bioactivity of Angiotensin II in the rat uterus assay which is also described by Matsoukas et al., supra. Since HPLC afforded the trifluoroacetate salt of the peptide, [Sar^1 ]Angiotensin II was neutralized by passage through a column (1.5×3 cm) of carboxymethylcellulose (Whatman CM23) cation exchange resin. The peptide (10 mg) was first applied to the column in 0.01M ammonium acetate at pH 5 (5 ml) and then eluted with 0.5M ammonium acetate at pH 8 (10 ml). The effluent obtained at pH 8 was lyophilized thrice and 5 mg of the product was dissolved in 0.5 ml of DMSO-d6 and two drops of D2 O were added. Argon was bubbled through the sample for 5 minutes before the NMR tube was sealed.
# [1] = agonist activity of oxytocin analog (assay not described)
Compound,AGONIST ACTIVITY (rat isolated uterus),agonist / antagonist character in words (rat isolated uterus),also measured
"[Tyr(Me)^4 ]Angiotensin III [B, reference compound]",27,–,–
CC[C@H](C)[C@H](NC(=O)[C@H](Cc1ccc(O)cc1)NC(=O)[C@@H](NC(=O)[C@@H](N)CCCNC(=N)N)C(C)C)C(=O)N[C@@H](Cc1c[nH]cn1)C(=O)N1CCC[C@H]1C(=O)N[C@@H](CC1CCCCC1)C(=O)O [E],5,Potent receptor antagonist with residual agonist activity,–
"CC[C@H](C)[C@H](NC(=O)[C@H](Cc1ccc(O)cc1)NC(=O)[C@@H](NC(=O)[C@H](CCCNC(=N)N)NC(=O)CNC)C(C)C)C(=O)N[C@@H](Cc1c[nH]cn1)C(=O)N1CCC[C@H]1C(=O)N[C@@H](Cc1ccccc1)C(N)=O [Ligand F, [Sar^1 Phe--NH2^8]Angiotensin II]",–,lack of significant agonist activity,–
CC[C@H](C)[C@H](NC(=O)[C@H](Cc1ccc(O)cc1)NC(=O)[C@@H](NC(=O)[C@H](CCCNC(=N)N)NC(=O)CNC)C(C)C)C(=O)N[C@@H](Cc1c[nH]cn1)C(=O)N1CCC[C@H]1C(=O)N[C@@H](Cc1ccccc1)C(N)=O [F],0.2,–,–
CC[C@H](C)[C@@H]1NC(=O)[C@H](Cc2ccc(O)cc2)NC(=O)[C@@H](N)CSSC[C@@H](C(=O)N2CCC[C@H]2C(=O)N[C@@H](CC(C)C)C(=O)NCC(N)=O)NC(=O)[C@H](C)NC(=O)[C@H](CCC(N)=O)NC1=O [[Ala^5]] (H-CYIQACPLG-NH2; disulfide 1-6),–,–,agonist activity in words [1]: no agonist activity
CC[C@H](C)[C@H](NC(=O)[C@H](Cc1ccc(O)cc1)NC(=O)[C@@H](NC(=O)[C@@H](N)CCCNC(=N)N)C(C)C)C(=O)N[C@@H](Cc1c[nH]cn1)C(=O)N1CCC[C@H]1C(=O)N[C@@H](Cc1ccccc1)C(=O)O [K],10,–,–
CC[C@H](C)[C@H](NC(=O)[C@@H]1CCCN1C(=O)[C@H](Cc1c[nH]cn1)NC(=O)[C@@H](NC(=O)[C@H](Cc1ccc(O)cc1)NC(=O)[C@@H](NC(=O)[C@H](CCCNC(=N)N)NC(=O)CNC)C(C)C)[C@@H](C)CC)C(=O)O [J],less than 0.1,Potent receptor antagonist,–
"CC[C@H](C)[C@H](NC(=O)[C@H](Cc1ccc(O)cc1)NC(=O)[C@@H](NC(=O)[C@H](CCCNC(=N)N)NC(=O)CNC)C(C)C)C(=O)N[C@@H](C)C(=O)N1CCC[C@H]1C(=O)N[C@@H](Cc1ccccc1)C(=O)O [Ligand G, [Sar^1 Ala^6]Angiotensin II] (H-[Sar]RVYIAPF-OH)",–,lack of significant agonist activity,–
CC[C@H](C)[C@H](NC(=O)[C@H](Cc1ccc(O)cc1)NC(=O)[C@@H](NC(=O)[C@H](CCCNC(=N)N)NC(=O)CNC)C(C)C)C(=O)N[C@@H](C)C(=O)N1CCC[C@H]1C(=O)N[C@@H](Cc1ccccc1)C(=O)O [G] (H-[Sar]RVYIAPF-OH),less than 0.1,–,–
CC[C@H](C)[C@H](NC(=O)[C@H](Cc1ccc(O)cc1)NC(=O)[C@@H](NC(=O)[C@H](CCCNC(=N)N)NC(=O)CNC)C(C)C)C(=O)N[C@@H](Cc1c[nH]cn1)C(=O)N1CCC[C@H]1C(=O)N[C@@H](CC1CCCCC1)C(=O)O [D],4,Potent receptor antagonist with residual agonist activity,–
[Sar^1 Tyr(Me)^4 ]Angiotensin II [reference compound],100,–,–
CC[C@H](C)[C@H](NC(=O)[C@H](Cc1ccc(O)cc1)NC(=O)[C@@H](NC(=O)[C@H](CCCNC(=N)N)NC(=O)CNC)C(C)C)C(=O)N[C@@H](Cc1ccccc1)C(=O)N1CCC[C@H]1C(=O)N[C@@H](Cc1ccccc1)C(=O)O [C] (H-[Sar]RVYIFPF-OH),7,–,–
CC[C@H](C)[C@H](NC(=O)[C@H](Cc1ccc(O)cc1)NC(=O)[C@@H](NC(=O)[C@H](CCCNC(=N)N)NC(=O)CNC)C(C)C)C(=O)N[C@@H](Cc1c[nH]cn1)C(=O)N1CCC[C@@H]1C(=O)N[C@@H](Cc1ccccc1)C(=O)O [I],less than 0.1,–,–
"CC[C@H](C)[C@H](NC(=O)[C@H](Cc1ccc(O)cc1)NC(=O)[C@@H](NC(=O)[C@H](CCCNC(=N)N)NC(=O)CNC)C(C)C)C(=O)N[C@@H](Cc1c[nH]cn1)C(=O)N1CCC[C@H]1C(=O)N[C@@H](Cc1ccccc1)C(=O)O [[Sar^1]Angiotensin II, reference compound]",–,–,bioactivity relative to Angiotensin II (rat isolated uterus; rat uterus assay): 180%
